Data from patent US8076487B2, “Pyridone derivative and herbicide” (Kumiai Chemical Industry Co., Ltd., priority 2006, dated 2011).

Assays:
Format in all cases: in vivo
[1] = tested on: slender amaranth (Amaranthus viridis L.); assay: Test Example 3: herbicidal effect by application to upland field (foliage treatment); settings: foliage treatment, 1,000 g active ingredient per 1 hectare, 14th day after application, greenhouse
Procedure, shortened: (§1)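 Dose 1,000 g active ingredient/ha, sprayed as diluted wettable powder over entire plants two weeks after sowing in field soil. Kept in greenhouse; herbicidal effect graded on a standard scale on day 14.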

[2] = tested on: barnyardgrass (Echinochloa crus-galli (L.) P. Beauv. var. crus-galli); assay: as above; settings: foliage treatment, 1,000 g active ingredient per 1 hectare, 14th day after application, greenhouse
Procedure, shortened: as §1

[3] = tested on: velvetleaf (Abutilon theophrasti medicus); assay: as above; settings: foliage treatment, 1,000 g active ingredient per 1 hectare, 14th day after application, greenhouse
Procedure, shortened: as §1

[4] = tested on: green foxtail (Setaria viridis (L.) P. Beauv.); assay: as above; settings: foliage treatment, 1,000 g active ingredient per 1 hectare, 14th day after application, greenhouse
Procedure, shortened: as §1

[5] = tested on: early watergrass (Echinochloa oryzicola Vasing); assay: Test Example 1: herbicidal effect by soil application to paddy field; settings: paddy field soil application; active ingredient 1,000 g per 1 hectare; wettable powder added dropwise to water surface the day after sowing; examined on the 21st day after application
Procedure, shortened: (§2)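 Under greenhouse conditions, seeds sown on puddled paddy soil in 100 cm2 pots under 3 cm of standing water received the test compound; injury was assessed with a standard scoring scheme three weeks (day 21) after treatment.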

[6] = tested on: Japanese bulrush (Scirpus juncoides Roxb.); assay: as above; settings: paddy field soil application; active ingredient 1,000 g per 1 hectare; wettable powder added dropwise to water surface the day after sowing; examined on the 21st day after application
Procedure, shortened: as §2

[7] = tested on: heartshape false pickerelweed (Monochoria vaginalis (Burm.f.) C.Presl); assay: as above; settings: paddy field soil application; active ingredient 1,000 g per 1 hectare; wettable powder added dropwise to water surface the day after sowing; examined on the 21st day after application
Procedure, shortened: as §2

[8] = tested on: slender amaranth (Amaranthus viridis L.); assay: Test Example 2: herbicidal effect by soil application to upland field; settings: soil surface spray, upland field soil, 1,000 g active ingredient per hectare, 21st day after application
Procedure, shortened: (§3)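 In this soil-application test, sown and soil-covered pots are sprayed uniformly with the formulation diluted in water, giving 1,000 g of active ingredient per ha in a volume of 1,000 L per ha. Plants then grow in a greenhouse for 21 days before herbicidal scoring by a standard scale.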

[9] = tested on: barnyardgrass (Echinochloa crus-galli (L.) P. Beauv. var. crus-galli); assay: as above; settings: soil surface spray, upland field soil, 1,000 g active ingredient per hectare, 21st day after application
Procedure, shortened: as §3

[10] = tested on: velvetleaf (Abutilon theophrasti medicus); assay: as above; settings: soil surface spray, upland field soil, 1,000 g active ingredient per hectare, 21st day after application
Procedure, shortened: as §3

[11] = tested on: green foxtail (Setaria viridis (L.) P. Beauv.); assay: as above; settings: soil surface spray, upland field soil, 1,000 g active ingredient per hectare, 21st day after application
Procedure, shortened: as §3

SMILES	herbicidal effect, Slender Amaranth [1]	herbicidal effect, Barnyardgrass [2]	herbicidal effect, Velvetleaf [3]	herbicidal effect, Green Foxtail [4]	herbicidal effect, Echinochloa oryzicola Vasing [5]	herbicidal effect, Scirpus juncoides Roxb. [6]	herbicidal effect, Monochoria vaginalis (Burm. f.) C. Presl [7]	herbicidal effect (index), Slender Amaranth [8]	herbicidal effect (index), Barnyardgrass [9]	herbicidal effect (index), Velvetleaf [10]	herbicidal effect (index), Green Foxtail [11]
COc1cc(-n2c(C(F)(F)F)ccc(C(=O)c3cnn(C)c3O)c2=O)ccc1Cl [IV-90]	5 (90% or more of herbicidal effect and crop phytotoxicity)	5 (90% or more of herbicidal effect and crop phytotoxicity)	5 (90% or more of herbicidal effect and crop phytotoxicity)	5 (90% or more of herbicidal effect and crop phytotoxicity)	5 (90% or more of herbicidal effect and crop phytotoxicity)	5 (90% or more of herbicidal effect and crop phytotoxicity)	5 (90% or more of herbicidal effect and crop phytotoxicity)	5 (90% or more of herbicidal effect and crop phytotoxicity)	5 (90% or more of herbicidal effect and crop phytotoxicity)	5 (90% or more of herbicidal effect and crop phytotoxicity)	3 (50 to less than 70% of herbicidal effect and crop phytotoxicity)
COc1ccc(-n2c(C(F)(F)F)ccc(C(=O)c3cnn(C)c3O)c2=O)cc1F [IV-92]	5 (90% or more of herbicidal effect and crop phytotoxicity)	4 (70 to less than 90% of herbicidal effect and crop phytotoxicity)	4 (70 to less than 90% of herbicidal effect and crop phytotoxicity)	4 (70 to less than 90% of herbicidal effect and crop phytotoxicity)	5 (90% or more of herbicidal effect and crop phytotoxicity)	5 (90% or more of herbicidal effect and crop phytotoxicity)	5 (90% or more of herbicidal effect and crop phytotoxicity)	5 (90% or more of herbicidal effect and crop phytotoxicity)	5 (90% or more of herbicidal effect and crop phytotoxicity)	5 (90% or more of herbicidal effect and crop phytotoxicity)	5 (90% or more of herbicidal effect and crop phytotoxicity)
CCCS(=O)(=O)Oc1c(C(=O)c2ccc(C(F)(F)F)n(-c3ccc(OC)c(F)c3)c2=O)cnn1C [IV-93]	5 (90% or more of herbicidal effect and crop phytotoxicity)	4 (70 to less than 90% of herbicidal effect and crop phytotoxicity)	4 (70 to less than 90% of herbicidal effect and crop phytotoxicity)	4 (70 to less than 90% of herbicidal effect and crop phytotoxicity)	5 (90% or more of herbicidal effect and crop phytotoxicity)	5 (90% or more of herbicidal effect and crop phytotoxicity)	5 (90% or more of herbicidal effect and crop phytotoxicity)	5 (90% or more of herbicidal effect and crop phytotoxicity)	5 (90% or more of herbicidal effect and crop phytotoxicity)	5 (90% or more of herbicidal effect and crop phytotoxicity)	4 (70 to less than 90% of herbicidal effect and crop phytotoxicity)
COCc1cc(-n2c(C(F)(F)F)ccc(C(=O)c3cnn(C)c3O)c2=O)ccc1F [IV-95]	5 (90% or more of herbicidal effect and crop phytotoxicity)	5 (90% or more of herbicidal effect and crop phytotoxicity)	5 (90% or more of herbicidal effect and crop phytotoxicity)	5 (90% or more of herbicidal effect and crop phytotoxicity)	5 (90% or more of herbicidal effect and crop phytotoxicity)	5 (90% or more of herbicidal effect and crop phytotoxicity)	5 (90% or more of herbicidal effect and crop phytotoxicity)	5 (90% or more of herbicidal effect and crop phytotoxicity)	5 (90% or more of herbicidal effect and crop phytotoxicity)	5 (90% or more of herbicidal effect and crop phytotoxicity)	5 (90% or more of herbicidal effect and crop phytotoxicity)
CCCS(=O)(=O)Oc1c(C(=O)c2ccc(C(F)(F)F)n(-c3ccc(F)c(COC)c3)c2=O)cnn1C(C)C [IV-96]	4 (70 to less than 90% of herbicidal effect and crop phytotoxicity)	3 (50 to less than 70% of herbicidal effect and crop phytotoxicity)	5 (90% or more of herbicidal effect and crop phytotoxicity)	5 (90% or more of herbicidal effect and crop phytotoxicity)	5 (90% or more of herbicidal effect and crop phytotoxicity)	4 (70 to less than 90% of herbicidal effect and crop phytotoxicity)	5 (90% or more of herbicidal effect and crop phytotoxicity)	4 (70 to less than 90% of herbicidal effect and crop phytotoxicity)	4 (70 to less than 90% of herbicidal effect and crop phytotoxicity)	5 (90% or more of herbicidal effect and crop phytotoxicity)	3 (50 to less than 70% of herbicidal effect and crop phytotoxicity)
Cn1ncc(C(=O)c2ccc(C(F)(F)F)n(-c3ccc4c(c3)OCO4)c2=O)c1O [IV-97]	5 (90% or more of herbicidal effect and crop phytotoxicity)	5 (90% or more of herbicidal effect and crop phytotoxicity)	5 (90% or more of herbicidal effect and crop phytotoxicity)	5 (90% or more of herbicidal effect and crop phytotoxicity)	5 (90% or more of herbicidal effect and crop phytotoxicity)	5 (90% or more of herbicidal effect and crop phytotoxicity)	5 (90% or more of herbicidal effect and crop phytotoxicity)	5 (90% or more of herbicidal effect and crop phytotoxicity)	5 (90% or more of herbicidal effect and crop phytotoxicity)	5 (90% or more of herbicidal effect and crop phytotoxicity)	4 (70 to less than 90% of herbicidal effect and crop phytotoxicity)
CCCS(=O)(=O)Oc1c(C(=O)c2ccc(C(F)(F)F)n(-c3ccc4c(c3)OCO4)c2=O)cnn1C [IV-98]	5 (90% or more of herbicidal effect and crop phytotoxicity)	5 (90% or more of herbicidal effect and crop phytotoxicity)	5 (90% or more of herbicidal effect and crop phytotoxicity)	4 (70 to less than 90% of herbicidal effect and crop phytotoxicity)	5 (90% or more of herbicidal effect and crop phytotoxicity)	5 (90% or more of herbicidal effect and crop phytotoxicity)	5 (90% or more of herbicidal effect and crop phytotoxicity)	5 (90% or more of herbicidal effect and crop phytotoxicity)	3 (50 to less than 70% of herbicidal effect and crop phytotoxicity)	5 (90% or more of herbicidal effect and crop phytotoxicity)	5 (90% or more of herbicidal effect and crop phytotoxicity)
